According to paper PMC11752117 (Journal of Traditional and Complementary Medicine, 2024):
Where two headings read alike, the source gives them in different places.

Details: for concentration in plasma (molar) / concentration in plasma / concentration in lung tissue: 4 h after administration, respective extract 1000 mg/kg p.o.; for concentration in plasma / concentration in lung tissue: mean ± SD; for calculated concentration in lung tissue (molar): on the basis of lung water content approximately 80 % by weight
[1] = Day 1, infected hamsters, n = 4

| Structure (SMILES) | concentration in plasma (molar) (Day 1) | concentration in plasma [1] | concentration in lung tissue (Day 1) | calculated concentration in lung tissue (molar) (Day 1) | concentration in plasma (molar) (Day 3) | concentration in lung tissue (Day 3) | concentration in plasma (Day 3) | calculated concentration in lung tissue (molar) (Day 3) | concentration in plasma (molar) (Day 7) | concentration in lung tissue (Day 7) | concentration in plasma (Day 7) | calculated concentration in lung tissue (molar) (Day 7) | average concentrations in lung tissue (range over sampling days, respective extract 1000 mg/kg/day p.o.) |
| --- | --- | --- | --- | --- | --- | --- | --- | --- | --- | --- | --- | --- | --- |
| C=C1CC[C@@H]2[C@](C)(CO)[C@H](O)CC[C@@]2(C)[C@@H]1C/C=C1/C(=O)OC[C@H]1O [Andrographolide, andrographolide] | ~5.48 µM | 1921.3 ± 508.4 ng/mL | 0.750 ± 0.206 µg/g | 1.72 µM | ~5.51 µM | 0.800 ± 0.144 µg/g | 1930.1 ± 257.7 ng/mL | 1.83 µM | ~8.01 µM | 0.850 ± 0.181 µg/g | 2808.1 ± 547.4 ng/mL | ~1.94 µM |  |
| COc1cc(O)c(C(=O)[C@@H]2[C@H](CC=C(C)C)C(C)=CC[C@H]2c2ccccc2)c(O)c1 [Panduratin A, panduratin A] | ~4.21 µM | 1710.4 ± 284.3 ng/mL | 0.186 ± 0.015 µg/g | 0.37 µM | ~7.27 µM | 0.262 ± 0.047 µg/g | 2954.1 ± 582.1 ng/mL | 0.52 µM |  |  |  |  | 0.19 to 0.26 µg/g |
